Source: patent US6479466B1, “Compositions for treating viral infections, and methods therefor” (University of Maryland, priority 1999, dated 2002)

Key:
PHA-activated PBMCs [1] = test: Cell viability by trypan blue staining in PHA-activated PBMCs; type: cell-based, human
Procedure: The effect of RV and […] on PBMC proliferation at the concentrations shown to enhance the anti-HIV effect of ddI were examined. Cellular proliferation in culture in the presence or absence of drugs was measured by commercial MTT assay, according to the manufacturer's instructions (Boehringer Mannheim). Cell viability was determined by trypan blue staining.
In a separate study designed to assess cell viability by trypan blue staining, PHA-activated PBMCs were cultured for 7 days in the presence of IL-2, 2 μM ddI, plus varying concentrations of RV. When RV was used at 25 μM, over 60% of cells became trypan blue stained, therefore indicating cell death. In the absence of RV or when RV was used at 5 or 10 μM, values of more than 95% cell viability were obtained.

PHA-activated PBMCs [2] = test: 3H-thymidine incorporation (DNA synthesis) assay in proliferating PBMCs; type: cell-based, human; settings: RV 10 μM; day 2
Procedure: For example, a thymidine incorporation assay using PBMC's may be carried out as follows. PBMC's are suspended, then 0.1 ml (100,000) of cells are added to each designated well of a 96-well plate. The plates are placed into a 37° C., 5% CO2, 95% humid incubator for the predetermined incubation periods—normally 2 and 5 days. At the end of the incubation period, and at a standard time prior to harvesting the plate (6-18 hours), 1.0-1.5 μCi (20 μl of 50-75 mCi/ml in complete medium) of [^3H]-labeled methyl thymidine is added to each well of the assay. The plates are then incubated for the remaining 6-18 hours. At the end of the [^3H]-thymidine pulse, the plates are harvested onto filter paper using a semi-automated multi-well harvester. The filter paper containing bound DNA may be dried using either ethanol or by moderate microwave heating. The filter paper samples are counted in a scintillation counter using standard procedures.
Proliferating PBMCs were cultured in the presence of RV or HU for 5 days. On day 2 and 5 an MTT assay and a ^3H-thymidine incorporation assay were performed.

[3] = tested on: clinical isolates of HIV-1 (EJC-1 to EJC-4); test: p24 antigen production in activated PBMCs infected with clinical isolates; type: cell-based
Procedure: For infection studies involving PBMCs, cells were stimulated with 2.5 or 10 μg/ml phytohemagglutinin (PHA; Boehringer Mannheim, Indianapolis, Ind.) for 3 days. Stimulated PBMCs were infected by incubation with virus at a multiplicity of infection of 1000 TCID50/10^6 PBMC for 2 hours. PBMCs were then washed three times with PBS and cultured in 5% CO2 at 37° C., in RPMI/10% FBS supplemented with 10 units/ml IL-2 (Boehringer Mannheim) and drugs as appropriate. PBMCs were seeded in 96-well flat-bottom plates at a density of 2×10^5 PBMCs/200 μl. Following 3 days of culture half of the medium was replaced with fresh medium containing IL-2 and drugs. After 7 days of culture, HIV-1 p24 antigen production in the culture supernatant was assayed by ELISA (Coulter, Hialeah, Fla.). The concentration of nucleoside analog, alone and in combination with resveratrol, that reduced the p24 antigen value of the untreated control by 90% (IC90) was calculated by using nonparametric regression analysis. The analysis used the median-effect equation, Fa=1/[1+(Dm/D)]^m, where D is the dose, Fa is the fraction affected, and Dm is the dose required to produce the median effect.
The increase of ddI-antiviral activity by RV was next evaluated in a panel of clinical isolates of HIV-1. […]

[4] = tested on: HIV-174V isolate (L74V mutation in the RT gene); test: p24 antigen in activated PBMCs infected with ddI-resistant isolate 74V; type: cell-based, HIV-1
Description: The present example provides data to test whether viral isolates carrying mutations in the RT gene that confer resistance to ddI could be rendered sensitive when the nucleoside analogue was combined with RV. Viruses containing one or more of the mutations associated with resistance to ddI, e.g., an isolate carrying the L74V mutation which confers primary resistance to ddI, a virus isolate carrying 4 different resistance-associated mutations in the RT gene (HIV-1 RTMDR1) were used to infect PHA-stimulated PBMCs. The HIV-174V isolate, and the HIV-1RTMDR1 isolate (containing the M41L, L74V, V106A and T215Y mutations, conferring resistance to AZT, ddI, nevirapine and other non-nucleotide RT inhibitors) were obtained from Dr. Larder at the National Institutes of Health AIDS Research and Reference Reagent Program (Catalog #2528 and #2529, respectively, Rockville, Md.). In addition, viruses having mutations 65R, 74V, 184V in the RT gene, and a virus containing the multiple-nucleoside-resistance mutation 151M were assayed in infectivity assays using RV plus ddI. The mutations present in the RT gene of each virus as well as their susceptibility to ddI are as follows: HIV-174V(ddIIC90=2.6 μM); HIV-141L, 74V, 106A, 215Y (ddIIC90=4.5 μM); HIV-165R, 74V, 184V (ddIIC90>20 μM) and HIV-162V, 751, 77L, 151M (ddIIC90>20 μM). […]

SMILES: Oc1ccc(/C=C/c2cc(O)cc(O)c2)cc1 [RV, trans-3, 4′, 5-trihydroxystilbene]
- toxicity to cells (PHA-activated PBMCs [1]; RV 10 μM): not toxic
- trypan blue stained cells (cell death) (PHA-activated PBMCs [1]; RV 25 μM, 7 days, with IL-2 and 2 μM ddI): over 60%
- cell viability (PHA-activated PBMCs [1]; RV 5 or 10 μM, 7 days, with IL-2 and 2 μM ddI): more than 95%
- 3H-thymidine incorporation (DNA synthesis) (PHA-activated PBMCs [2]): higher amounts of ^3H-thymidine incorporation than the untreated control

SMILES: OC[C@@H]1CC[C@H](n2cnc3c(O)ncnc32)O1 [ddI, 2′,3′-dideoxyinosine]
- enhancement of antiviral activity of ddI ([3]; 1 μM ddI plus 5 μM RV, depending on the clinical isolate): 18-185 fold
- enhancement of ddI activity ([3]; 1 μM ddI plus 10 μM RV): 88-1200 fold
- suppression of viral replication ([4]; 2 μM ddI alone): 28%
- IC90 ([4]; Human immunodeficiency virus 1, PBMC, read-out: ddI IC90): 2.6 µM
